From patent US10828301B2, “2,4-pyrimidinediamine compounds and their uses” (Rigel Pharmaceuticals, Inc, priority 2002, dated 2020) come the findings set out here.

Assay [1] has as its system cultured human mast cells (CHMC). Put plainly: CHMC low cell density IgE activation: tryptase and LTC4 assays. It is filed as cell-based. The settings on record: Low Density CHMC, anti-IgE activation. The essentials: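 Degranulation measured after 30 min anti-IgE challenge at 37° C of CHMC plated at 1000-1500 cells/well following 1 h preincubation. Readouts: LTC4 by ELISA on donor-specific diluted supernatants, and tryptase activity from a 30 min room-temperature substrate reaction.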

For assay [2] the test system is unchanged. Put plainly: CHMC low cell density ionomycin activation: tryptase assay. It is filed as cell-based. Conditions: Low Density CHMC, ionomycin activation, tryptase readout, read-out: CHMC Ionomycin Tryptase.
The mark [3] stands for this setting: Homo sapiens, Mast cell, tryptase readout, read-out: CHMC anti-IgE Tryptase.

`Oc1cccc(Nc2nc(Nc3ccc4c(c3)CCO4)ncc2F)c1` [Compound R909250, N2-(2,3-Dihydrobenzofuran-5-yl)-5-fluoro-N4-(3-hydroxyphenyl)-2,4-pyrimidinediamine]: the IC50 in assay [1] (setting [3]) is 8.03 µM; in assay [2] (Homo sapiens, Mast cell) it was more than 10 µM.

With `Cc1cc(Nc2ncc(F)c(Nc3ccc4c(c3)N=CCO4)n2)cc(Cl)c1O` [Compound R909255, N4-(1,4-Benzoxazin-6-yl)-N2-(3-chloro-4-hydroxy-5-methylphenyl)-5-fluoro-2,4-pyrimidinediamine], the IC50 in assay [1] (setting [3]) was 0.244 µM; in assay [2] (Homo sapiens, Mast cell) it was more than 10 µM.

Turning to `Oc1cccc(Nc2ncc(F)c(Nc3ccc(OC(F)(F)F)c(Cl)c3)n2)c1` [Compound R920411, N4-(3-Chloro-4-trifluoromethoxyphenyl)-5-fluoro-N2-(3-hydroxyphenyl)-2,4-pyrimidinediamine], the IC50 in assay [1] (setting [3]) is 0.564 µM; in assay [2] (Homo sapiens, Mast cell), more than 10 µM.

Regarding `CCCCCCOc1ccc(Nc2ncc(F)c(Nc3ccc4c(c3)OCCO4)n2)cc1` [Compound R920664, N4-(3,4-Ethylenedioxyphenyl)-5-fluoro-N2-(4-n-hexyloxyphenyl)-2,4-pyrimidindiamine], the IC50 in assay [1] (setting [3]) is more than 10 µM; in assay [2] (Homo sapiens, Mast cell), more than 10 µM.

`CCCCOc1ccc(Nc2cc(Nc3ccc4c(c3)OCCO4)c(F)cn2)cc1` [Compound R920666, N2-(4-n-Butyloxyphenyl)-N4-(3,4-ethylenedioxyphenyl)-5-fluoro-2,4-pyridinediamine]: the IC50 in assay [1] (setting [3]) is 2.53 µM; in assay [2] (Homo sapiens, Mast cell), more than 10 µM.

As for `Fc1cnc(Nc2cccnc2)nc1Nc1ccc2c(c1)OCCO2` [Compound R920668, N4-(3,4-Ethylenedioxyphenyl)-5-fluoro-N2-(3-pyridyl)-2,4-pyrimidinediamine], the IC50 was 3.2 µM in assay [1] (setting [3]) and more than 10 µM in assay [2] (Homo sapiens, Mast cell).

As for `CCCCOc1ccc(Nc2cc(Nc3ccc4c(c3)OCCO4)ncc2F)cc1` [Compound R920671, N4-(4-n-Butyloxyphenyl)-N2-(3,4-ethylenedioxyphenyl)-5-fluoro-2,4-pyridinediamine], the IC50 in assay [1] (setting [3]) was more than 10 µM; in assay [2] (Homo sapiens, Mast cell), more than 10 µM.

Consider `CCCCCCOc1ccc(Nc2cc(Nc3ccc4c(c3)OCCO4)ncc2F)cc1` [Compound R920672, N4-(4-n-Hexyloxyphenyl)-N2-(3,4-ethylenedioxyphenyl)-5-fluoro-2,4-pyridinediamine], for which the IC50 in assay [1] (setting [3]) was more than 10 µM; in assay [2] (Homo sapiens, Mast cell), more than 10 µM.

Take `Oc1cccc(Nc2nc(Nc3ccc(OCc4nnn[nH]4)cc3)ncc2C(F)(F)F)c1` [Compound R920846]: the IC50 in assay [1] (tryptase readout, read-out: CHMC anti-IgE Tryptase) is more than 10 µM; in assay [2], more than 10 µM.

In the case of `CCOC(=O)c1cccc(Nc2ncc(F)c(Nc3ccc4c(c3)OCCO4)n2)c1` [Compound R925745, N2-(3-Ethoxycarbonylphenyl)-N4-(3,4-ethylenedioxyphenyl)-5-fluoro-2,4-pyrimidinediamine], the IC50 in assay [1] (setting [3]) is 1.77 µM; in assay [2] (Homo sapiens, Mast cell), more than 10 µM.

Turning to `OCc1cccc(Nc2ncc(F)c(Nc3cccc(CO)c3)n2)c1` [Compound R925757, N2,N4-Bis(3-(hydroxymethyl)phenyl)-5-fluoro-2,4-pyrimidinediamine], the IC50 in assay [1] (setting [3]) is 2.8 µM; in assay [2] (Homo sapiens, Mast cell) it was more than 10 µM.

For `OCc1cccc(Nc2nc(Nc3ccc4c(c3)OCCO4)ncc2F)c1` [Compound R925758, N2-(3,4-Ethylenedioxyphenyl)-5-fluoro-N4-[3-(hydroxymethyl)phenyl]-2,4-pyrimidinediamine], the IC50 in assay [1] (setting [3]) was 1.18 µM; in assay [2] (Homo sapiens, Mast cell) it was more than 10 µM.

`Nc1nc(N(c2ccc(CO)cc2)c2ccc3c(c2)OCCO3)ncc1F` [Compound R925760, N2-(3,4-Ethylenedioxyphenyl)-5-fluoro-N2-[4-(hydroxymethyl)phenyl]-2,4-pyrimidinediamine]: the IC50 in assay [1] (setting [3]) is 4.85 µM; in assay [2] (Homo sapiens, Mast cell), more than 10 µM.

Take `Nc1nc(N(CC(O)c2ccccc2)c2ccc3c(c2)OCCO3)ncc1F` (centres unmarked) [Compound R925765, N2-(3,4-Ethylenedioxyphenyl)-5-fluoro-N2-(2-hydroxy-2-phenylethyl)-2,4-pyrimidinediamine]: the IC50 is 6.8 µM in assay [1] (setting [3]) and more than 10 µM in assay [2] (Homo sapiens, Mast cell).

Take `Brc1cnc(Nc2ccc3c(c2)OCCO3)nc1Nc1ccc2c(c1)OCCO2` [Compound R925771, N2,N4-Bis(3,4-ethylenedioxyphenyl)-5-bromo-2,4-pyrimidinediamine]: the IC50 was determined as 0.22 µM in assay [1] (Homo sapiens, Mast cell, LTC4 readout, read-out: CHMC anti-IgE LTC4); 0.5 µM in assay [1] (setting [3]); 2.8 µM in assay [2] (Homo sapiens, Mast cell).

Turning to `Fc1cnc(NCc2ccccc2)nc1NCc1ccccc1` [Compound R925772, N2,N4-Dibenzyl-5-fluoro-2,4-pyrimidinediamine], the IC50 in assay [1] (setting [3]) was more than 10 µM; in assay [2] (Homo sapiens, Mast cell), more than 10 µM.

Take `N#Cc1cnc(Nc2ccc3c(c2)OCCO3)nc1Nc1ccc2c(c1)OCCO2` [Compound R925773, N2,N4-Bis(3,4-ethylenedioxyphenyl)-5-cyano-2,4-pyrimidinediamine]: the IC50 in assay [1] (setting [3]) was 0.673 µM; in assay [2] (Homo sapiens, Mast cell), more than 10 µM.

Turning to `N#Cc1cnc(Nc2cccc(O)c2)nc1Nc1cccc(O)c1` [Compound R925774, N2,N4-Bis(3-hydroxyphenyl)-5-cyano-2,4-pyrimidinediamine], the IC50 in assay [1] (setting [3]) was 0.435 µM; in assay [2] (Homo sapiens, Mast cell), more than 10 µM.

Consider `Fc1cnc(Nc2ccc3c(c2)OCO3)nc1Nc1ccc2c(c1)OCO2` [Compound R925776, N2,N4-Bis(3,4-methylenedioxyphenyl)-5-fluoro-2,4-pyrimidinediamine], for which the IC50 was 2.1 µM in assay [1] (setting [3]) and more than 10 µM in assay [2] (Homo sapiens, Mast cell).

On to `Oc1cccc(Nc2ncc(-c3ccccc3)c(Nc3cccc(O)c3)n2)c1` [Compound R925783, N2,N4-Bis(3-hydroxyphenyl)-5-phenyl-2,4-pyrimidinediamine], for which the IC50 in assay [1] (setting [3]) was 2.9 µM; in assay [2] (Homo sapiens, Mast cell) it was more than 10 µM.

Consider `c1ccc(-c2cnc(Nc3ccc4c(c3)OCCO4)nc2Nc2ccc3c(c2)OCCO3)cc1` [Compound R925784, N2,N4-Bis(3,4-ethylenedioxyphenyl)-5-phenyl-2,4-pyrimidinediamine], for which the IC50 in assay [1] (setting [3]) is 3.2 µM; in assay [2] (Homo sapiens, Mast cell), more than 10 µM.

Consider `c1coc(-c2cnc(Nc3ccc4c(c3)OCCO4)nc2Nc2ccc3c(c2)OCCO3)c1` [Compound R925785, N2,N4-Bis(3,4-ethylenedioxyphenyl)-5-(2-furanyl)-2,4-pyrimidinediamine], for which the IC50 in assay [1] (setting [3]) was 2.5 µM; in assay [2] (Homo sapiens, Mast cell) it was more than 10 µM.

For the compound `Clc1ccc(-c2cnc(Nc3ccc4c(c3)OCCO4)nc2Nc2ccc3c(c2)OCCO3)cc1` [Compound R925786, N2,N4-Bis(3,4-ethylenedioxyphenyl)-5-(4-chlorophenyl)-2,4-pyrimidinediamine], the IC50 in assay [1] (setting [3]) is 1.85 µM; in assay [2] (Homo sapiens, Mast cell), more than 10 µM.

Turning to `Clc1cccc(-c2cnc(Nc3ccc4c(c3)OCCO4)nc2Nc2ccc3c(c2)OCCO3)c1` [Compound R925787, N2,N4-Bis(3,4-ethylenedioxyphenyl)-5-(3-chlorophenyl)-2,4-pyrimidinediamine], the IC50 in assay [1] (setting [3]) was 9 µM; in assay [2] (Homo sapiens, Mast cell), more than 10 µM.

As to `Oc1cccc(Nc2ncc(-c3ccc4c(c3)OCO4)c(Nc3cccc(O)c3)n2)c1` [Compound R925788, N2,N4-Bis(3-hydroxyphenyl)-5-(3,4-methylenedioxyphenyl)-2,4-pyrimidinediamine], the IC50 was 2.4 µM in assay [1] (setting [3]) and more than 10 µM in assay [2] (Homo sapiens, Mast cell).

On to `Oc1ccc(CCNc2ccnc(NCCc3ccc(O)cc3)n2)cc1` [Compound R925790, N2,N4-Bis[2-(4-hydroxyphenyl)ethyl]-2,4-pyrimidinediamine], for which the IC50 was more than 10 µM in assay [1] (setting [3]) and more than 10 µM in assay [2] (Homo sapiens, Mast cell).
